Assay results reported in the NIST ThermoML archive (doi:10.1016/j.jct.2009.06.020).

Tests used:
[1] = isobaric coefficient of expansion; conditions: 298.15 K; 101.33 kPa; Liquid; Curve Fitting Density Data
[2] = refractive index (Na D-line) (dimensionless); conditions: 101.33 kPa, Liquid, Standard Abbe refractometry
[3] = for speed of sound / mass density / viscosity: 101.33 kPa, Liquid; for speed of sound: Single path-length method; for mass density: Vibrating tube method; for viscosity: Capillary tube (Ostwald / Ubbelohde) method

CCCCCCCCCCCCCC[P+](CCCCCC)(CCCCCC)CCCCCC.N#C[N-]C#N [tetradecyl(trihexyl)phosphonium dicyanamide]
Conditions | isobaric coefficient of expansion
[1] | 0.000642 1/K

Conditions | mass density, [3] [kg/m3] | refractive index, [2] | speed of sound, [3] [m/s] | viscosity, [3] [mPa·s]
278.15 K | 910.72 | – | 1599 | –
283.15 K | 907.58 | 1.48826 | 1579 | –
288.15 K | 904.66 | 1.48667 | 1561 | –
293.15 K | 901.76 | 1.48502 | 1542 | 562.45
298.15 K | 898.86 | 1.48337 | 1526 | 418.33
303.15 K | 895.98 | 1.48174 | 1509 | 312.69
308.15 K | 893.09 | 1.48008 | 1493 | 239.97
313.15 K | 890.26 | 1.47843 | 1477 | 186.79
318.15 K | 887.46 | 1.47679 | 1462 | 145.95
323.15 K | 884.65 | 1.47516 | 1447 | 116.18
328.15 K | 881.83 | 1.47352 | 1432 | 93.8
333.15 K | 879.03 | 1.47189 | 1418 | 76.14
338.15 K | 876.22 | 1.47024 | 1404 | 62.63
343.15 K | 873.42 | 1.46848 | 1390 | 51.99

CCCC[N+]1(C)CCCC1.O=S(=O)([N-]S(=O)(=O)C(F)(F)F)C(F)(F)F
Conditions | isobaric coefficient of expansion
[1] | 0.000633 1/K

Conditions | mass density, [3] [kg/m3] | refractive index, [2] | speed of sound, [3] [m/s] | viscosity, [3] [mPa·s]
278.15 K | 1412.36 | – | 1316 | –
283.15 K | 1407.86 | 1.42717 | 1303 | –
288.15 K | 1403.45 | 1.42573 | 1291 | –
293.15 K | 1399.02 | 1.4243 | 1280 | 98.07
298.15 K | 1394.59 | 1.42304 | 1269 | 76.92
303.15 K | 1390.2 | 1.42164 | 1258 | 61.47
308.15 K | 1385.8 | 1.42021 | 1247 | 49.94
313.15 K | 1381.42 | 1.41878 | 1236 | 41.22
318.15 K | 1377.04 | 1.41736 | 1225 | 34.32
323.15 K | 1372.69 | 1.41588 | 1214 | 28.95
328.15 K | 1368.35 | 1.41447 | 1204 | 24.68
333.15 K | 1364.02 | 1.413 | 1193 | 21.23
338.15 K | 1359.71 | 1.4116 | 1183 | 18.42
343.15 K | 1355.41 | 1.4102 | 1173 | 16.12

Conditions | Normal melting temperature [°C]
[3], Crystal, visual observation | -8.00
